Experimental data: patent publication US8946266B2, “Substituted triazole and imidazole derivatives as gamma secretase modulators” (Janssen Pharmaceuticals, Inc., priority 2009, dated 2015)
pIC50: −log10 of the molar value. Like-named read-outs stand apart in the source and are kept apart here.

Experiments:
Aβ42 = experiment: γ-secretase-modulating activity, Method 2: Aβ42 Alphalisa in supernatant of SKNBE2 cells carrying APP 695-wild type (Table 3b); format: cell-based; conditions: overnight
Method: (§1) Screening was carried out using SKNBE2 cells carrying the APP 695-wild type, grown in Dulbecco's Modified Eagle's Medium/Nutrient mixture F-12 (DMEM/NUT-mix F-12) (HAM) provided by Invitrogen (cat no. 10371-029) containing 5% Serum/Fe supplemented with 1% non-essential amino acids, 1-glutamine 2 mM, Hepes 15 mM, penicillin 50 U/ml (units/ml) en streptomycin 50 μg/ml. Cells were grown to near confluency.
(§2) The screening was performed using a modification of the assay as described in Citron et al (1997) Nature Medicine 3: 67. Briefly, cells were plated in a 384-well plate at 10^4 cells/well in Ultraculture (Lonza, BE12-725F) supplemented with 1% glutamine (Invitrogen, 25030-024), 1% non-essential amino acid (NEAA), penicillin 50 U/ml en streptomycin 50 μg/ml in the presence of test compound at different test concentrations. The cell/compound mixture was incubated overnight at 37° C., 5% CO2. The next day the media were assayed by two sandwich immuno-assays, for Aβ42 and Aβtotal.
(§3) Aβtotal and Aβ42 concentrations were quantified in the cell supernatant using the Aphalisa technology (Perkin Elmer). Alphalisa is a sandwich assay using biotinylated antibody attached to streptavidin coated donorbeads and antibody conjugated to acceptor beads. In the presence of antigen, the beads come into close proximity. The excitation of the donor beads provokes the release of singlet oxygen molecules that trigger a cascade of energy transfer in the acceptor beads, resulting in light emission. To quantify the amount of Aβ42 in the cell supernatant, monoclonal antibody specific to the C-terminus of Aβ42 (JRF/cAβ42/26) was coupled to the receptor beads and biotinylated antibody specific to the N-terminus of Aβ (JRF/AβN/25) was used to react with the donor beads. To quantify the amount of Aβ total in the cell supernatant, monoclonal antibody specific to the N-terminus of Aβ (JRF/AβN/25) was coupled to the receptor beads and biotinylated antibody specific to the mid region of Aβ (biotinylated 4G8) was used to react with the donor beads.
To obtain the values reported in Table 3b, the data were calculated as percentage of the maximum amount of amyloid Beta 42 measured in the absence of the test compound.
(§4) The sigmoidal dose response curves were analyzed using non-linear regression analysis with percentage of the control plotted against the log concentration of the compound. A 4-parameter equation was used to determine the IC50.
(§5) The IC50 values are shown in Table 3b (Aβtot means Aβtotal).

Aβtotal = experiment: γ-secretase-modulating activity, Method 2: Aβtotal Alphalisa in supernatant of SKNBE2 cells carrying APP 695-wild type (Table 3b); format: cell-based; conditions: overnight, read-out: IC50 Aβtot
Method: as §1, §2, §3, §4, §5

COc1cc(-c2nc3n(n2)CCOC3c2ccccc2C(F)(F)F)ccc1-n1cnc(C)c1 (stereo not shown) [Compound 279]
pIC50 (Aβ42; Homo sapiens): 7.21 | pIC50 (Aβtotal; Homo sapiens): < 5.00

COc1cc(-c2nc(-c3ccc(F)cc3)n(C(C)C)n2)ccc1-n1cnc(C)c1 [Compound 83]
pIC50 (Aβ42): 6.59 | pIC50 (Aβtotal): < 5.00

COc1cc(-c2nc(N3CCCc4ccccc43)n(C)n2)ccc1-n1cnc(C)c1 [Compound 349]
pIC50 (Aβ42): 6.59 | pIC50 (Aβtotal): < 5.00

COc1nc(-c2nc3n(n2)CCCC3c2ccc(F)cc2C)ccc1-n1cnc(C)c1 (stereo not shown) [Compound 313]
pIC50 (Aβ42): 7.17 | pIC50 (Aβtotal): < 5.00

COc1cc(-c2nc(-c3ccc(-n4cnc(C)c4)c(OC)c3)n(C)n2)ccc1Cl [Compound 58]
pIC50 (Aβ42): < 5.00 | pIC50 (Aβtotal): < 5.00

COc1cc(-c2nc3n(n2)C(C)CCC3c2ccc(F)cc2C)ccc1-n1cnc(C)c1 (stereo not shown) [Compound 363]
pIC50 (Aβ42): 6.39

COc1cc(-c2nc(-c3cccc(C(F)(F)F)c3)nn2C)ccc1-n1cnc(C)c1 [Compound 8]
pIC50 (Aβ42): 5.37 | pIC50 (Aβtotal): < 5.00

COc1cc(-c2ncn(-c3ccccc3C(F)(F)F)n2)ccc1-n1cnc(C)c1 [Compound 63]
pIC50 (Aβ42): 5.87 | pIC50 (Aβtotal): < 5.00

COc1cc(-c2nc(Nc3cccc(F)c3)n(C)n2)ccc1-n1cnc(C)c1 [Compound 104]
pIC50 (Aβ42): 6.94 | pIC50 (Aβtotal): 5.08

COc1cc(-c2nc(C3CCCCC3)n(C)n2)ccc1-n1cnc(C)c1 [Compound 34]
pIC50 (Aβ42): 6.62 | pIC50 (Aβtotal): < 5.00

COc1cc(-c2nc(Nc3ccc(F)cc3C(F)(F)F)n(C(C)C)n2)ccc1-n1cnc(C)c1 [Compound 49]
pIC50 (Aβ42): 7.40 | pIC50 (Aβtotal): 5.22

COc1cc(-c2nc(-c3cc(Cl)ccc3C)nn2C)ccc1-n1cnc(C)c1 [Compound 298]
pIC50 (Aβ42): 5.51 | pIC50 (Aβtotal): < 5.00

COc1cc(-c2nc(-c3cc(C(F)(F)F)ccc3C)n(C(C)C)n2)ccc1-n1cnc(C)c1 [Compound 73]
pIC50 (Aβ42): 6.70 | pIC50 (Aβtotal): 5.02

COc1cc(-c2nc(-c3ccc(F)cc3)n(C3CCCC3)n2)ccc1-n1cnc(C)c1 [Compound 41]
pIC50 (Aβ42): 6.39 | pIC50 (Aβtotal): < 5.00

COc1cc(-c2nc(-c3ccccc3Cl)n(CC(F)(F)F)n2)ccc1-n1cnc(C)c1 [Compound 86]
pIC50 (Aβ42): 6.71 | pIC50 (Aβtotal): < 5.00

COc1cc(-c2n[nH]c(-c3ccc(F)cc3)n2)ccc1-n1cnc(C)c1 [Compound 4]
pIC50 (Aβ42; Homo sapiens): 6.19 | pIC50 (Aβtotal; Homo sapiens): < 5.00

COc1cc(-c2nc(Nc3cc(C(F)(F)F)c(F)cc3F)n(C)n2)ccc1-n1cnc(C)c1 [Compound 172]
pIC50 (Aβ42): 7.21 | pIC50 (Aβtotal): < 5.00

COc1nc(-c2nc3n(n2)CCC[C@@H]3c2ccc(F)cc2C)ccc1-n1cnc(C)c1 [Compound 360]
pIC50 (Aβ42): 6.62

COc1cc(-c2nc(Nc3cc(C(C)(C)C)ccc3F)n(C)n2)ccc1-n1cnc(C)c1 [Compound 357]
pIC50 (Aβ42): 8.15

COc1cc(-c2nc(Nc3cc(C)ccc3F)n(C)n2)ccc1-n1cnc(C)c1 [Compound 350]
pIC50 (Aβ42): 7.36

COc1ccc(F)c(C2CCCn3nc(-c4ccc(-n5cnc(C)c5)c(OC)c4)nc32)c1 (stereo not shown) [Compound 364]
pIC50 (Aβ42): 7.08

COc1cc(-c2nc3n(n2)CCOC3c2cc(C(F)(F)F)ccc2C)ccc1-n1cnc(C)c1 (stereo not shown) [Compound 371]
pIC50 (Aβ42): 7.40

CCOc1ccc(F)c(Nc2nc(-c3ccc(-n4cnc(C)c4)c(OC)c3)nn2C)c1 [Compound 354]
pIC50 (Aβ42): 7.66

COc1cc(-c2nc(Nc3cc(OC4CCOC4)ccc3F)n(C)n2)ccc1-n1cnc(C)c1 (racemic) [Compound 358]
pIC50 (Aβ42): 7.21

COc1nc(-c2nc3n(n2)CCOC3c2cc(OC(F)(F)F)ccc2F)ccc1-n1cnc(C)c1 (stereo not shown) [Compound 374]
pIC50 (Aβ42): 7.21

COc1cc(-c2nc3n(n2)CCC(C)C3c2ccc(F)cc2)ccc1-n1cnc(C)c1 (stereo not shown) [Compound 369]
pIC50 (Aβ42): 6.91

COc1nc(-c2nc3n(n2)CCOC3c2cc(C(F)(F)F)ccc2C)ccc1-n1cnc(C)c1 (stereo not shown) [Compound 370]
pIC50 (Aβ42): 7.44

COc1cc(-c2nc(C3CCc4ccccc4N3C)n(C)n2)ccc1-n1cnc(C)c1 (stereo not shown) [Compound 366]
pIC50 (Aβ42; Homo sapiens): 6.29

COc1cc(-c2nc(Nc3cc(C)ccc3C(F)(F)F)n(C)n2)ccc1-n1cnc(C)c1 [Compound 351]
pIC50 (Aβ42): 7.55

COc1cc(-c2nc(Nc3cc(OCC4CC4)ccc3F)n(C)n2)ccc1-n1cnc(C)c1 [Compound 356]
pIC50 (Aβ42): 7.70
